These results are taken from patent publication US12433870B2, “Supramolecular photoprotection of a photosensitizer” (Northwestern University, priority 2019, dated 2025).

Data set [1] concerns A2780 cells. The data set is described as follows: Annexin V FITC/7-AAD apoptosis assay. As to conditions: for intact cells: dark conditions. It counts as cell-based. The method, then: A2780 cells (5×10^5 cells/mL, 100 μL) were seeded in each well of a Black 96-well plate and incubated with 5 or 10 μM PBS solution of ExBox^4+⊃DPP for 12 h. After incubation, cells were washed with 1×PBS, added with 100 μL of DMEM and immediately irradiated with visible light using Max-303 Xenon Light Source (385-740 nm, Asahi Spectra) at 25 and 50 mW light intensities for 10 min. After irradiation, cells were incubated for an additional 3 h prior to being trypsinized and recovered for annexin V staining. 50 μL of Annexin V solution (1:50 FITC Annexin V in Annexin V staining buffer) was added to cells and was incubated at room temperature for 20 min. 500 μL of 1×PBS was then added to cells, which were centrifuged at 400 ref for 5 min, and the supernatant was discarded. Cells were resuspended in 100 μL of 1:20 7-AAD in cell staining buffer and were incubated for 10 min prior to analysis on a BD Fortessa flow cytometer. Cells were first gated for singlet events using FSC-A vs. FSC-H, after which debris was excluded used FSC-A vs. SSC-A. All remaining events were gated as live, dead, or apoptotic based on annexin V staining vs. 7-AAD staining, with dead cells staining 7-AAD+, live cells staining as 7-AAD- and annexin-V-, and apoptotic cells staining 7-AAD-annexin-V+. Cells without irradiation were used as controls.

Data set [2] concerns MCF-7 cells. Briefly: MTT assay, in vitro cytotoxicity in the dark. It counts as cell-based, human. To be noted: 0.625-100 μM in PBS. Here is the method:
(§1) A2780 cells (human ovarian cancer cell line) and MCF-7 cells (human breast adenocarcinoma cell line) obtained from Sigma-Aldrich and American Type Culture Collection (ATCC, Rockville, MD, USA), respectively were utilized for cell culture experiments. These cells were cultured in Dulbecco's Modified Eagle's Medium (DMEM) supplemented with 10% fetal bovine serum (FBS), penicillin (100 IU/mL) and streptomycin (100 μg/mL) at 37° C. in the presence of air (95%) and CO2 (5%).
(§2) A2780 or MCF-7 cells (2×10^5 cells/mL, 100 μL) were seeded in each well of a black 96-well plate. Stock solution of ExBox^4+⊃DPP in PBS (1 mM, 10 μL) was added to each well to achieve working concentrations and incubated for 12 h. […] Following irradiation, cells were incubated overnight and then added with MTT (5 mg/mL in PBS, 10 μL). After 4 h incubation with MTT, media from each well was pipetted out, formazan crystals deposited on the plate were dissolved in 200 μL of Me2SO, and the absorbance of each well was measured using a microplate reader at 560 nm. All the samples were analyzed in quadruplicates.
(§3) The percentage cell viability was calculated using the following formula: % cell viability=(OD of treated sample/OD of untreated sample)*100.
For orientation: Tetrazolium dyes change colour on reduction, which living cells bring about.

Data set [3] relates to A2780 cells. Briefly: MTT assay, in vitro cytotoxicity in the dark. To be noted: 0.625-100 μM in PBS. It counts as cell-based, human. Here is the method: as §1, §2, §3
The test system of data set [4] is A2780 cells. Briefly: Live cell confocal microscopy, cellular uptake and co-localization. The data set is classed as cell-based, human. The method, then:
(§4) A2780 cells (1×10^5 cells/mL, 300 μL) were plated in each well of an 8-well μ-slide (ibidi cell focus) and cultured overnight. PBS solution of ExBox^4+⊃DPP was added to each well and incubated for predetermined time points. For cellular co-localization studies, cells were washed with phenol free DMEM and stained with LysoTracker green (lysosome stain, 1:1000 dilution) or MitoSpy™ Green FM (mitochondria stain, 1:2000 dilution) or NucBlue™ Live ReadyProbes™ Reagent (nuclei stain, 1 drop). For the live-dead assay, cells were incubated with PBS solution of ExBox^4+⊃DPP irradiated for 10 min at […] light intensity, incubated overnight, and stained with Calcein AM (2 μM) and Ethidium homodimer-1 (4 μM). Plated cells were imaged within a humidified chamber using a 63× oil-immersion objective on a SP5 Leica Confocal Microscope using HyD detectors and lasers.

Data set [5] concerns ExBox^4+ and DPP. Briefly: 1H NMR titration, host-guest association constant (1:1 binding model). As to conditions: 1H NMR titration in (CD3)2CO, 298 K. The method, then: The synthesis of ExBox•4Cl was carried out following our previously reported procedure^17. Solid DPP (0.46 mg, […]) was dissolved in Me2CO (1 mM, 1 mL) and added to a solution of ExBox•4Cl in H2O (1.0 mM, 1 mL). The mixture was sonicated for 15 min, Me2CO was removed in vacuum, and the H2O portion was passed through a 0.45-μm filter to yield 1:1 ExBox^4+⊃DPP complex (FIG. 1A) in water. Upon complex formation, the aqueous solution color changed to light orange-pink or tangerine. […] The resonances for the α and CH2 protons of ExBox^4+ were affected only slightly by the shielding effect of DPP as they are located at the corners and display only slight shifts in their […] spectra. This pattern is in excellent agreement with the inclusion of DPP inside ExBox^4+ in solution. […] The association constant (Ka) obtained from 1:1 binding model was calculated to be 12600±300 M^−1 from the chemical shifts of […] titrations experiments (FIG. 1B-1C) between ExBox^4+ and DPP in (CD3)2CO.
The ^1H NMR (298 K, 500 MHz) titration was performed by adding small volumes of a solution of DPP in Me2CO-d6 to a solution of ExBox•4PF6 in Me2CO-d6. […]
(CD3)2CO stock solutions of ExBox^4+ (0.4 mM) and DPP (5.4 mM) were prepared. […] The NMR spectra were recorded after each addition of DPP solution. […]

Data set [6] is described as follows: Solubility in water / PBS buffer. To be noted: H2O. It counts as physicochemical.
Data set [7] has as its system A2780 cells. The data set is described as follows: Calcein-AM/Ethidium homodimer-1 live-dead assay. The data set is classed as cell-based, human. As to conditions: 10 μM. Here is the method:
as §4

With `C1=Cc2nc1cc1ccc([nH]1)c(-c1ccccc1)c1nc(cc3ccc([nH]3)c2-c2ccccc2)C=C1.c1cc2ccc1C[n+]1ccc(cc1)-c1ccc(cc1)-c1cc[n+](cc1)Cc1ccc(cc1)C[n+]1ccc(cc1)-c1ccc(cc1)-c1cc[n+](cc1)C2` [ExBox^4+⊃DPP], the intact cells stood at 79% in data set [1] (5 μM) and 72% in data set [1] (10 μM). Further, the apoptotic cells result in data set [1] (10 μM versus 5 μM, 0.078 or 0.156 Jcm^−2 light dose, 3 h post irradiation) was “a smaller number of apoptotic cells”. For the same compound, the “cell viability in the dark” value in data set [2] and in data set [3] was > 95% in each case. Further, the “cell injury under continuous irradiation (real-time confocal)” value in data set [4] (5 min continuous irradiation, 25 mW) is listed as “showed blebs on their surface”. The “lysosomal co-localization (lysotracker)” value was “no lysosomal co-localization” in data set [4] (1 h incubation) and “co-localization of DPP with the green fluorescence of lysotracker was detected” in data set [4] (incubation time up to 12 h). For the same compound, the “mitochondrial internalization (mitospy)” value in data set [4] (12 h incubation, 10 μM) is “no mitochondrial internalization”. The “lowest concentration traceable as punctate inside cells” value in data set [4] (red laser excitation, 12 h incubation) was determined as 0.1. Further, the “association constant (Ka)” value in data set [5] was 12600 ± 300 M⁻¹. The “solubility in H2O” value in data set [6] was “soluble in H2O”. Also, the live-dead staining result in data set [7] (0.156 J cm^−2 light dose for 10 min) is “red fluorescence”; in data set [7] (dark conditions) it was “bright green fluorescence”.
